The text below walks through data of patent US20100284914A1 (priority 2005, published 2010).

Each structure is given as a SMILES string. Values after ≈ are worked out from the molar mass of the structure shown. Read-outs that look alike come from different tables or passages of the source. Where only a bound is given, the exact number is not on record here.

The test system of one series is Candida albicans CBS 562. It counts as cell-based. The following applies: for MIC: read-out: MIC (column A).
The next series relates to Candida albicans 607. It counts as cell-based.
Another series deals with Candida albicans 615. It counts as cell-based.
Series [1] concerns Candida glabrata 4475 (resistant to azoles). In kind it is cell-based. To be noted: Nakaseomyces glabratus, 24 h, read-out: MIC.
For a further series, the system named is Candida glabrata 4787. In kind it is cell-based.
The subject of the next series is Rhizopus oryzae. Put plainly: microbe, parasite or virus in culture. The following applies: Rhizopus arrhizus. In kind it is cell-based.
The test system of another series is Candida glabrata 4681. It counts as cell-based. The following applies: footnote c.
A short description of a further series: in vivo. To be noted: male, ICR, mouse, iv.
The conditions of series [2]: long chain lengths.
Series [3] can be described thus: Stability of the radiolabeled product by TLC. It counts as physicochemical. To be noted: saline solution, after 10 hours, silica gel 60 F254. The method, then:
The final product was tested on TLC (silica gel 60 F254) after 10 hours and found stable.

The test system of a further series is Sprague-Dawley rats. In words: PET imaging, bio-distribution. In kind it is in vivo. To be noted: normal female Sprague-Dawley rats, 50 μCi via tail vein, imaged after 30 minutes. How it is done:
The exemplary [^18F] labeled amine fluorocyanoborane according to the present embodiments, Compound [^18F]K-I4, was injected into normal rats, and was monitored by a PET/CT Philips camera.
Four normal, female Sprague-Dawley rats (250-300 grams each) were injected via the tail vein with 50 μCi of Compound [^18F]K-I4 solution in saline (4.5 mCi/ml). Fifteen minutes after injection, the rats were anesthetized with 45 mg Ketamine and 24 mg Acepromazin, and after 30 minutes each rat was imaged for 15 minutes.

The mark [4] stands for this setting: Candida glabrata 4475 (resistant to azoles), footnote c.
Setting [5] is: CBS562, Candida albicans CBS 562, MIC-0, 24 h, 35° C.
[6] abbreviates: Candida albicans 607, MIC-0, 24 h, 35° C., read-out: MIC.
Where [7] appears, read: Candida albicans 615, MIC-0, 24 h, 35° C., read-out: MIC.
Setting [8] is: Nakaseomyces glabratus, Candida glabrata 4787, read-out: MIC.
The mark [9] stands for this setting: Candida albicans, 607, 24 h, read-out: MIC.
Setting [10] is: Candida albicans, 615, 24 h, read-out: MIC.

In turn, `C[N+](C)(C)[BH-](F)C#N` (stereo not drawn) displayed a melting point of 53 °C.
`C[N+](C)(C)[B-](F)(F)C#N` registered a melting point of 48 °C.
On the same count and under the same terms, the result for `COC(=O)[B-](F)(F)[N+](C)(C)C` reads 66 °C.
For `C[C@@H]1[C@H](O)[C@@H](C)/C=C/C=C/C=C/C=C/C=C/C=C/C=C/[C@H](O[C@@H]2O[C@H](C)[C@@H](O)[C@H](N)[C@@H]2O)C[C@@H]2O[C@](O)(C[C@@H](O)C[C@@H](O)[C@H](O)CC[C@@H](O)C[C@@H](O)CC(=O)O[C@H]1C)C[C@H](O)[C@H]2C(=O)O` [CAF1, Amphotericin B, reference compound], in the series on Candida albicans CBS 562 (Candida albicans CBS 562, MIC-0, 24 h, 35° C.), the “MIC (column A)” value turned out to be 0.54 µM (≈ 0.499 µg/mL). Besides, the “MIC” value with Candida albicans 607 (Candida albicans 607, MIC-0, 24 h, 35° C.) was found to be 0.27 µM (≈ 0.25 µg/mL); against Candida albicans 615 (Candida albicans 615, MIC-0, 24 h, 35° C.), 0.27 µM (≈ 0.25 µg/mL).
Take `C[N+](C)(C)[B-](Br)(Br)C#N` [K-E, trimethyl-amine cyanodibromoborane]: the MIC in series [1] (setting [4]) was over 0.5 µg/mL; with Candida albicans CBS 562 (setting [5]), 1970 µM (≈ 504 µg/mL); with Candida albicans 607 (setting [6]), over 1970 µM; with Candida albicans 615 (setting [7]), over 1970 µM.
With `CCCCCCCCCCC[N+](C)(C)[BH-](Br)C#N` (stereo not drawn) [K-I1, dimethyl-undecyl-amine cyanobromoborane], the MIC in [1] (setting [4]) was found to be 0.0078 µg/mL (≈ 0.0246 µM); in the series with Candida albicans CBS 562 (setting [5]), 49 µM (≈ 15.5 µg/mL); in the series on Candida glabrata 4787 (setting [8]), 15.6 µM (≈ 4.95 µg/mL); with Candida albicans 607 (setting [6]), 49 µM (≈ 15.5 µg/mL); in the series on Rhizopus oryzae, 63 µg/mL (≈ 199 µM); with Candida albicans 615 (setting [7]), 49 µM (≈ 15.5 µg/mL). Moreover, the “MIC” value in the series on Candida glabrata 4681 is recorded as 7.8^c μg per liter.
In the case of `CCCCCCCCCCC[N+](C)(C)[B-](Br)(Br)C#N` [K-I2, dimethyl-undecyl-amine cyanodibromoborane], the MIC is 39 µM (≈ 15.4 µg/mL) in the series on Candida albicans CBS 562 (setting [5]); 32 µM (≈ 12.7 µg/mL) in the series with Candida glabrata 4787 (setting [8]); 39 µM (≈ 15.4 µg/mL) with Candida albicans 607 (setting [6]); 39 µM (≈ 15.4 µg/mL) in the series with Candida albicans 615 (setting [7]); 32^c μg per liter in the series on Candida glabrata 4681. Further, the MTD in “in vivo” stood at 73.1 µmol/kg.
For `CCCCCCCCCCC[N+](C)(C)[B-](F)(Br)C#N` (stereo not drawn) [K-I3, dimethyl-undecyl-amine cyanofluorobromoborane], the MIC is 7.8 µM (≈ 2.61 µg/mL) in the series with Candida albicans CBS 562 (setting [5]) and 63 µg/mL (≈ 188 µM) against Rhizopus oryzae.
Consider `CCCCCCCCCCC[N+](C)(C)[BH-](F)C#N` (stereo not drawn) [K-I4, dimethyl-undecyl-amine cyanofluoroborane], for which the MIC with Candida albicans CBS 562 (setting [5]), with Candida albicans 607 (setting [6]) and in the series with Candida albicans 615 (setting [7]) was 64 µM (≈ 16.4 µg/mL) in each case.
On to `C[N+](C)(CCCCCCCCCC[N+](C)(C)[BH-](Br)C#N)[BH-](Br)C#N` (stereo not drawn) [K-J1, N,N,N′,N′-tetramethyldecane-1,10-diamine bis-cyanobromoborane], for which the MIC was 0.065 µg/mL (≈ 0.14 µM) in [1] (setting [4]); 140 µM (≈ 64.9 µg/mL) in the series on Candida albicans CBS 562 (setting [5]); 65 µM (≈ 30.2 µg/mL) in the series with Candida glabrata 4787 (setting [8]); 140 µM (≈ 64.9 µg/mL) with Candida albicans 607 (setting [6]); 140 µM (≈ 64.9 µg/mL) with Candida albicans 615 (setting [7]); 65^c μg per liter against Candida glabrata 4681.
`C[N+](C)(CCCCCCCCCC[N+](C)(C)[B-](Br)(Br)C#N)[B-](Br)(Br)C#N` [K-J2, N,N,N′,N′-tetramethyldecane-1,10-diamine bis-cyanodibromoborane]: the MIC in series [1] was 0.065 µg/mL (≈ 0.105 µM); with Candida albicans CBS 562 (Candida albicans, CBS562, 24 h), 104 µM (≈ 64.7 µg/mL); in the series on Candida glabrata 4787 (Nakaseomyces glabratus, 4787, read-out: MIC), 65 µM (≈ 40.4 µg/mL); in the series on Candida albicans 607 (setting [9]), 104 µM (≈ 64.7 µg/mL); in the series with Candida albicans 615 (setting [10]), 104 µM (≈ 64.7 µg/mL); against Candida glabrata 4681 it was 65^c μg per liter.
Consider `C[N+](C)([BH2-]C(=O)O)CCCCCCCCCC[N+](C)(C)[BH2-]C(=O)O` [K-J3, N,N,N′,N′-tetramethyldecane-1,10-diamine bis-carboxyborane], for which the MIC in [1] (setting [4]) is 0.0312 µg/mL (≈ 0.0907 µM); in the series with Candida albicans CBS 562 (setting [5]) it was 188 µM (≈ 64.7 µg/mL); in the series with Candida glabrata 4787 (setting [8]), 65 µM (≈ 22.4 µg/mL); in the series on Candida albicans 607 (setting [6]), 188 µM (≈ 64.7 µg/mL); with Candida albicans 615 (setting [7]), 907 µM (≈ 312 µg/mL); with Candida glabrata 4681, 65^c μg per liter.
Turning to `C[N+](C)([BH2-]C#N)CCCCCCCCCC[N+](C)(C)[BH2-]C#N` [K-J, N,N,N′,N′-tetramethyldecane-1,10-diamine bis-cyanoborane], the MIC in series [1] was 0.065 µg/mL (≈ 0.212 µM); in the series on Candida albicans CBS 562 (Candida albicans, CBS562, 24 h) it was 408 µM (≈ 125 µg/mL); in the series on Candida albicans 607 (setting [9]), 408 µM (≈ 125 µg/mL); in the series with Candida albicans 615 (setting [10]), 817 µM (≈ 250 µg/mL).
With `CCCCCCC(C)(O)C[N+](C)(C)[BH2-]C#N` (stereo not drawn) [K-O, 1-dimethylamino-2-methyl-octan-2-ol cyanoborane], the MIC is over 0.25 µg/mL in [1] (setting [4]), 2210 µM (≈ 500 µg/mL) in the series on Candida albicans CBS 562 (setting [5]), 1100 µM (≈ 249 µg/mL) with Candida albicans 607 (setting [6]) and 1100 µM (≈ 249 µg/mL) in the series with Candida albicans 615 (setting [7]).
Consider `CCCCCCCCCCCCCCCCC[N+](C)(C)[BH2-]C#N` [K-S, heptadecyl-dimethyl-amine cyanoborane], for which the solubility entry in series [2] is on record as “solubility problems”.
As for `CCCCCCCCCCC[N+](C)(C)[BH-]([18F])C#N` (stereo not drawn) [[^18F]K-I4, [^18F]dimethyl-undecyl-amine cyanofluoroborane], the “stability on TLC” value in series [3] is “stable”. The “bio-distribution by PET/CT” value with Sprague-Dawley rats was “uptake in the rat's bones”.

As usually defined, the melting point is the temperature of the solid-liquid transition.
